Source: a melting point compilation (Tetko et al.; mined from patent text by program, amines drawn as free bases though some values may be those of a salt)

SMILES	melting point [°C]
COc1ccc2c(c1)c(C(=O)N1CCN(C)CC1)c(N1CCNCC1)n2C	124 to 125
CCCCCCCCCCCCCCCCSCCO	50
CC(C)CN(CC(C)C)S(=O)(=O)N[C@@H](Cc1ccc(Oc2nccc3cnccc23)cc1)C(=O)O	88
CCN1C(=O)C(C)(C)C(=O)N(C)c2cc(OCCCN3C(=O)C4(OCCO4)c4ccccc43)ccc21	143 to 147
Cc1cc([N+](=O)[O-])c2c(c1SC(=O)N(C)C)CCC2	180
N#Cc1cn(-c2c(Cl)cc(C(F)(F)F)cc2Cl)c(N)c1I	130 to 132
O=c1c2cc(F)c(F)cc2n(CC2CC2)c(=O)n1OCc1ccccc1	121 to 123
CC1OC(=O)N2c3ccc(OCCCC(F)(F)F)cc3CCC12 (stereo not given)	79.1 to 79.2
COc1cc(N=C2SC(=CC(=O)O)C(=O)N2c2cc(OC)c(OC)c(OC)c2)cc(OC)c1OC	250 to 252
O=[N+]([O-])c1ccc(Oc2ccc(Oc3ccc(Oc4ccc(Oc5ccc([N+](=O)[O-])cc5)cc4)cc3)cc2)cc1	142 to 143
O=c1n(-c2cccc3ccccc23)c(=O)n(CCO)n1CCO	211 to 212
N#Cc1cc2cc(O)c(O)cc2s1	229 to 230
CN(C)Cc1nc(C=Cc2nc3ccc(F)cc3c(=O)n2-c2ccccc2F)cs1	163 to 165
C#Cc1ccc([Si](OC)(OC)OC)cc1	38 to 39
CCCc1c(C(=O)C(C)C)c2ccc(C(N)=O)cc2n1Cc1ccccc1C(N)=O	273 to 274
C[C@H](O)[C@H]1C(=O)N2C(C(=O)OCc3ccc([N+](=O)[O-])cc3)=C(SCCNC(=O)COc3ccccc3)C[C@H]12	115 to 118
CN1c2ccccc2-c2nc3ccccc3c3cccc1c23	212 to 214
COc1ccc(-c2ccc3c(c2)C(C)(C)CCC3(C)C)cc1-c1ccc(C(=O)O)cc1	148 to 152
Cn1c(-c2ccc(-c3cccnc3)cc2)cnc1[C@H](Cc1ccccn1)N(C=O)c1cc2cc(Br)ccc2o1	168 to 171
CN1CCN(C(=O)[C@H]2CC[C@H](c3[nH]nc4c3C(=O)c3c(NC(=O)NN5CCOCC5)cccc3-4)CC2)CC1	228 to 230
CCN1CCN(c2cc3c(cc2F)c(=O)c(C(=O)O)c2n3C(C)S2)CC1 (stereo not given)	211 to 214
Oc1ccc(-c2nnc(CCCCCCCc3ccccc3)o2)cc1	138 to 140

SMILES	melting point [°C]
O=c1c2c(Cc3ccccc3C(F)(F)F)n[nH]c2c2cccnc2n1-c1cccc(C(F)(F)F)c1	260 to 264
CNC(=S)NN=C(CCCOC(=O)Nc1ccccc1)c1ccccc1	155 to 157
COc1ccc2c(-c3cnc4[nH]cc(C(=O)N[C@H](C)C(=O)N5CC(C#N)C5)c4n3)nn(C)c2c1	220 to 240
N#CC1c2ccccc2Cc2ccccc21	106 to 108
CC#CCNC(=C[N+](=O)[O-])NCCSCc1[nH]cnc1C	148 to 151
Cc1ccc2[nH]c(=O)n(CCCN3CCN(C(c4ccccc4)c4ccccc4)CC3)c2c1	196
Nc1ncc2c(=O)c(C(=O)ON3C(=O)CCC3=O)c[nH]c2n1	> 300
N#Cc1cc(F)c(-n2c(=O)cc(C(F)(F)F)[nH]c2=O)cc1Oc1ccc2ccccc2c1	92
Cc1cc(Nc2ccnc(Nc3ccc(S(=O)(=O)N(Cc4ccco4)C4CCN(C)CC4)cc3)n2)ccc1F	184
O=S(=O)(c1ccccc1)c1c[nH]c2c(CCN3CCN(Cc4ccccc4)CC3)cccc12	80 to 82
Cc1c(-c2ccccc2)oc2c(CN(C)CCCl)cccc2c1=O	118 to 120
CC(C)Cn1c(CN2CCCS2(=O)=O)nc2c(N)nc3ccccc3c21	230 to 232
Cc1ccc(C(=O)c2cnn3c(-c4cccc(NC(=O)C5CC5)c4)ccnc23)s1	243 to 245
O=c1c2cn(S(=O)(=O)CCCCl)nc2n(CC2CC2)c(=O)n1CC1CC1	95 to 97
COC(CCNC(=O)C(F)(F)F)(c1ccccc1)c1ccccc1	108 to 110
CN1CCCCC1CCc1ccccc1NC(=O)c1ccc(F)cc1 (stereo not given)	116
CC(=O)OC1NC(=O)C1C(C)O[Si](C)(C)C(C)(C)C(C)C (stereo not given)	80 to 81
CONC(=O)Nc1ccc(-c2sc3c(c2CNC(C)c2ccccc2)c(=O)n(-c2ccc(F)cn2)c(=O)n3Cc2c(F)cccc2F)cc1 (stereo not given)	128 to 130
CCOCCS(=O)(=O)c1nc[nH]n1	91.5 to 92.5
CC(C)C[C@H](NC(=O)OCc1ccccc1)C(=O)N[C@@H](Cc1ccccc1)C(=O)CSCc1ccccc1	86 to 87
O=S(=O)(Nc1ccc2c(OCc3cccc(-c4ccc(C(F)(F)F)cc4)n3)cccc2c1)C(F)(F)F	180 to 182

Further lines, results first:

melting point [°C]	SMILES
160 to 161	O=C(O)CCC(=NOCc1ccc(OCc2cn3c(Cl)cccc3n2)cc1)c1ccccc1
> 250	Nc1nc(-c2ccccc2)c(-c2ccc(=O)[nH]n2)s1
155 to 157	N=C(CSc1nc2cc(Cl)ccc2s1)NO
190 to 194	CC(C)CC(NC(=O)c1ccc2c(N)cccc2n1)C(=O)NCC#N (stereo not given)
96 to 98	Oc1cccc(C2CCCN2Cc2ccccn2)c1 (stereo not given)
136 to 138	O=C(Nc1cccc(F)c1)NN1CC=CCC1
176 to 178	C#CCN(c1cc(-n2nc3ccc(Cl)cn3c2=O)c(F)cc1C#N)S(=O)(=O)CC
94 to 96	CN(C)C(=O)CN1CCc2ccc([N+](=O)[O-])cc2CC1
239 to 242	Cn1ccnc1-c1ccc(O)cc1
120 to 121	CC(=O)c1c(CN2CCOCC2)[nH]c2ccc(Cl)cc12
110 to 112	CCCCOCCOc1ccc(-c2ccc3c(c2)C=C(C(=O)O)CCN3CC2CCC2)cc1
121 to 123	CCN1c2ncc(CCc3cccc(N)c3)cc2C(=O)N(C)c2ccc(Cl)nc21
124 to 126	C=CCc1ccc(CCNC(=O)c2cc(Cl)ccc2OC)cc1S(=O)(=O)NC(=O)NC
201 to 202	C=C(c1ccccc1)c1ccc2nc(N)n(S(=O)(=O)N(C)C)c2c1
202	CC(=O)Nc1cc(C)cc(C=O)n1
154 to 155	CS(=O)c1ccc(-c2cnn(CC(F)(F)F)c(=O)c2-c2ccc(Cl)cc2)cc1 (stereo not given)
79 to 80	CCCc1c(OCC(O)COc2ccc3c(=O)cc(CCC(=O)O)oc3c2CCC)ccc(C(C)=O)c1O (stereo not given)
189 to 192	NC(=O)Cc1c[nH]c2cc(OCc3ccccc3)ccc12
< 40	CCCCOC(=O)C=CCOc1ccc(F)c(C(N)=O)c1F

melting point [°C]	SMILES
75 to 77	CCOC(=O)c1cnoc1-c1cccc(Cl)c1
204 to 206	CC1(CCC(=O)O)CCCc2c1[nH]c1ccccc21 (stereo not given)
265 to 268	COc1cc2ncnc(Nc3cccc(Cl)c3F)c2cc1O
213 to 225	CCCSNc1ccc(N)cc1
107 to 108	COc1ccc(C(=O)C2=C(c3ccccc3)c3ccc(OC)cc3CC2)cc1
132 to 134	Cc1ccc(Cl)cc1N1C(=O)CN(C)C1=S
71 to 73	ClCCCOc1ccc(-c2cnc(CSCCOc3ccccc3)o2)cc1
247 to 250	COc1ccccc1NC(=O)Nc1nc(O)ncc1F
219 to 220	N#CCCNC(=O)c1cccc(-c2ccc3c(n2)N(c2ccc(Cl)cc2Cl)CC3)c1
252	O=C(O)c1ccc(C=Cc2ccccc2)cc1
102 to 103	CCN(CC)C(=O)c1cc(-c2ccccc2)c2ccccc2c1OC
71 to 72	CC(C)C(O)c1ccc(-c2ccc(Cl)cc2)cc1 (stereo not given)
108 to 110	COC(=O)c1cccc2c1Nc1cc(I)ccc1C2
255 to 257	O=c1[nH]nc2ccc(-c3ccccc3)nn12
154 to 157	COC(=O)c1cccc2nc(Cl)n(Cc3ccc(-c4ccccc4C#N)cc3)c12
244 to 246	Cc1ccn2c(C)c(CCc3ccc4nc(N)oc4c3)nc2c1
42 to 43	O=C(CCC1CC1)N1C(=O)OC[C@@H]1Cc1ccccc1
176 to 177	O=C(C=Cc1cccc(F)c1)c1cnc2sc3c(n12)CCCCC3
208 to 209	CS(=O)(=O)Nc1ccc(OCCCNC(=O)c2ccc(Br)cc2)cc1

melting point [°C]	SMILES
100 to 101	COc1ccc(Cn2ncc3nc(Cl)nc(Cl)c32)cc1
237 to 240	C=C(C)CNc1cc(C(=O)O)cc(S(N)(=O)=O)c1Sc1ccc(N)cc1
198 to 200	COc1ccc(-c2nc(-c3cccn3CC(=O)O)sc2-c2ccc(OC)cc2)cc1
48 to 52	O=C(Nc1nccs1)C(CC1CCCC1)c1ccc(-c2cccnc2)cc1 (stereo not given)
198 to 200	COc1ccc(-c2[nH]cc(C(C)=O)c2N)cc1
158 to 160	CC(=O)OC1C(OC(=O)c2ccc(N)cc2)C=C(C)C(=O)CC1(C)C (stereo not given)
117 to 121	CCn1c(CO)nc2cccnc21
54.5 to 56	CCCCc1ccc2nc(C(=O)OCC)cc(Cl)c2c1
117 to 118	COc1nc(C(F)F)cnc1NS(=O)(=O)c1cccc(Cl)c1Cl
256 to 258	NC(=O)c1cc(N2CCN(Cc3ccc(F)cc3)C2=O)n[nH]1
245 to 248	O=C1Nc2c(C(F)(F)F)cccc2C12COc1cc3c(cc12)OCO3 (stereo not given)
197 to 199	COc1ccc2nc(-c3ccc(OC)c(F)c3)c(Cl)c(Br)c2c1
162 to 164	Cc1ccc(C2=NNC(=O)C3CC23)cc1 (stereo not given)
115 to 117	O=C1NC(=O)C(Sc2ccc(Br)cc2)S1 (stereo not given)
190	CCCS(=O)(=O)Oc1ccc(-c2c(C)c(C(=O)NN3CCCCC3)nn2-c2ccc(Cl)cc2Cl)cc1
98 to 102	CCCCCCCCOc1cc2cc(CO)c(CO)c(-c3ccnc(Cl)c3)c2cc1OC
145 to 147	Nc1cc(Cl)ccc1C(=O)NCCCc1cccnc1
99 to 100	C=CC(=O)Oc1ccc(NS(=O)(=O)CC)cc1
106 to 107	CCOC(=NC(=O)c1ccc(Cl)cc1)N1Cc2ccccc2-c2ccccc2C1
